The source of these data is ChEMBL document CHEMBL4619774 (J Med Chem, 2020).

Each structure is given as a SMILES string.

One data set deals with Coagulation factor XI (Homo sapiens, UniProt P03951). Kind of data set: Inhibition of human F11a using D-Leu-Pro-Arg*Rh110-D-Pro as substrate preincubated for 60 mins followed by substrate addition and measured after 60 mins by fluorescence assay.
The target in the next data set is T1, Coagulation factor VII (Homo sapiens, UniProt P08709).
T1 sequence (P08709 whole entry): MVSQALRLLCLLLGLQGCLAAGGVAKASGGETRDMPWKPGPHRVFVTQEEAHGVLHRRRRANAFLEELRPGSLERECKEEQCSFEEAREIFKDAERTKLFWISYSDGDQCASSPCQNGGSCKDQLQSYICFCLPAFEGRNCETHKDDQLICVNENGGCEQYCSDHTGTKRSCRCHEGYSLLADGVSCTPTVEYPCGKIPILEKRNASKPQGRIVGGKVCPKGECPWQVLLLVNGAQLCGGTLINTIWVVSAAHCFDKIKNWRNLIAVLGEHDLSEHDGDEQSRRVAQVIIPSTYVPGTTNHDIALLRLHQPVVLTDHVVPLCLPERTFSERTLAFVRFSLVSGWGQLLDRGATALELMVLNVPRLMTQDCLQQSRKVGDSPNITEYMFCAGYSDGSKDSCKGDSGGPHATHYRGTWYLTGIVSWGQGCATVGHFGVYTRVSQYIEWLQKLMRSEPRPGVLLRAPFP
Type of data set: single protein.

Another data set deals with Coagulation factor X (Homo sapiens, UniProt P00742). Type of data set: single protein.
Data set [1] has as its target Urokinase-type plasminogen activator (Homo sapiens, UniProt P00749). The data set is classed as single protein.
Data set [2] is described as follows: Dose normalized AUC in C57BL/6 mouse at 3 mg/kg, po by LC-MS/MS analysis. The settings on record: in vivo. Type of data set: ADME, organism-based.
Data set [3] in a line: Oral bioavailability in C57BL/6 mouse at 3 mg/kg by LC-MS/MS analysis. Type of data set: ADME, organism-based. The settings on record: in vivo.
Data set [4] can be described thus: Dose normalized Cmax in Sprague-Dawley rat at 30 mg/kg, po via gavage by HPLC-MS/MS analysis. The data set is classed as ADME, organism-based. As to conditions: in vivo.
Data set [5] can be described thus: Dose normalized AUC (0 to t) in Sprague-Dawley rat at 3 mg/kg, po via gavage by HPLC-MS/MS analysis. As to conditions: in vivo. Type of data set: ADME, organism-based.
A short description of data set [6]: Dose normalized AUC (0 to t) in Sprague-Dawley rat at 30 mg/kg, po via gavage by HPLC-MS/MS analysis. As to conditions: in vivo. The data set is classed as ADME, organism-based.
The nature of data set [7]: Oral bioavailability in Sprague-Dawley rat at 30 mg/kg via gavage by HPLC-MS/MS analysis. Type of data set: ADME, organism-based. As to conditions: in vivo.
Data set [8] in a line: Dose normalized AUC (0 to t) in beagle dog at 10 mg/kg, po via gavage by HPLC-MS/MS analysis. The data set is classed as ADME, organism-based, Canis lupus familiaris. The settings on record: in vivo.
A short description of data set [9]: Oral bioavailability in beagle dog at 75 mg/kg via gavage by HPLC-MS/MS analysis. The data set is classed as ADME, organism-based, Canis lupus familiaris. As to conditions: in vivo.
Data set [10] is described as follows: AUC (0 to t) in beagle dog at 1 mg/kg, iv by HPLC-MS/MS analysis. The data set is classed as ADME, organism-based, Canis lupus familiaris. As to conditions: in vivo.
A short description of data set [11]: Clearance in beagle dog at 1 mg/kg, iv administered as bolus dose by HPLC-MS/MS analysis. The data set is classed as ADME, organism-based, Canis lupus familiaris. The settings on record: in vivo.
The subject of another data set is Plasma. Briefly: Effect on coagulation in human plasma assessed as concentration required to double the prothrombin time by thromboplastin-DS reagent based automated coagulometric method. The data set is classed as ADME, cell-free.

Coagulation factor X, sequence (P00742 41-179 limits assumed): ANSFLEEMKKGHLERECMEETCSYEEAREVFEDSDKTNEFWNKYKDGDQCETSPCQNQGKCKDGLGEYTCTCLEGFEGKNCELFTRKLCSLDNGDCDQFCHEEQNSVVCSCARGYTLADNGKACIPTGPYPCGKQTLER
Coagulation factor X, sequence (P00742 235-488 limits assumed): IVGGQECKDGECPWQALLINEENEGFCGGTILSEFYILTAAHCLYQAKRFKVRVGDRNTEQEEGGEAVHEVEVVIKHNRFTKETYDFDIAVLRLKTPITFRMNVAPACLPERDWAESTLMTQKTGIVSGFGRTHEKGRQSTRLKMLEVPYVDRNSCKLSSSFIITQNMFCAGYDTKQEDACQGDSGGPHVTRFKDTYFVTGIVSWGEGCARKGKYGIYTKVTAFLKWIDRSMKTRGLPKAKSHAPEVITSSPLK
Coagulation factor XI, sequence (P03951 19-387 limits assumed): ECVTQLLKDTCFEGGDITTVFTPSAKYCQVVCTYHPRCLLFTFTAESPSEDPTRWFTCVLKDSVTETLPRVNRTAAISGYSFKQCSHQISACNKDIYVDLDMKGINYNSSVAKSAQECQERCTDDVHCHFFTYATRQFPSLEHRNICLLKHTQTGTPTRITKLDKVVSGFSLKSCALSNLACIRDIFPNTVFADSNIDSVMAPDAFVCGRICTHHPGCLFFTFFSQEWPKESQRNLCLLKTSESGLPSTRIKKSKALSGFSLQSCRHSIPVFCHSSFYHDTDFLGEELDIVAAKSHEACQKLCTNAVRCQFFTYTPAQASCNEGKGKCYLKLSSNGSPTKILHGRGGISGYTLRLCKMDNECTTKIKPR
Coagulation factor XI, sequence (P03951 388-625 limits assumed): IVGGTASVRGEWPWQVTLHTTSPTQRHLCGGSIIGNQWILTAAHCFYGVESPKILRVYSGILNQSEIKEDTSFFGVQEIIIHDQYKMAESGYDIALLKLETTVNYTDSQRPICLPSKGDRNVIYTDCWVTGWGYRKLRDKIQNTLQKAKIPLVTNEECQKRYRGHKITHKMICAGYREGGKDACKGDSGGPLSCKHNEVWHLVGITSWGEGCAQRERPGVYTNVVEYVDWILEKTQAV

For the compound `CC(C)c1cc(-c2ccc3c(c2)[C@H](N)CO3)cc([C@H](O)Cn2ccc3cccc(C(=O)O)c32)c1`, the IC50 against Coagulation factor XI turned out to be 0.0004 µM; on Coagulation factor VII it was 3.65 µM; at Coagulation factor X, 1.05 µM; in [1], 0.17 µM. For the same compound, the AUC/dose in data set [2] is 1297 nM·h. For the same compound, the bioavailability in [3] turned out to be 16%; in data set [7] it was 19%; in data set [9], 21%. The same compound gave a Cmax/dose in data set [4] of 0.143 µM. Further, the AUCt/dose was determined as 382 nM·h in data set [5], 621 nM·h in data set [6] and 560 nM·h in data set [8]. Also, the AUC(0-t) in [10] amounted to 10.7 µM·h. The compound further gave a clearance in [11] of 0.264 L/h/kg. Further, the 2PT in the data set on Plasma amounted to 28.7 µM.

By IC50 is commonly meant the concentration that gives 50% inhibition. Read a low IC50 as inhibition by little substance. In general, bioavailability refers to the share of a dose that reaches the circulation, judged against a reference dose that is usually intravenous. Low values mean little systemic uptake, high ones much systemic uptake. Broadly, the AUC(0-t) is the area under the concentration-time curve up to a stated or last time point. Read a high AUC(0-t) as more exposure. As a reminder, the clearance is the volume of plasma or blood freed of the substance per unit of time.
